These results are taken from PMC6107187, “A novel homodimer laccase from Cerrena unicolor BBP6: Purification, characterization, and potential in dye decolorization and denim bleaching” (PLoS ONE, 2018).

Like-named read-outs stand apart in the source and are kept apart here.

The test system of experiment [1] is LacA. The experiment is described as follows: oxidation monitored at […] nm, Lineweaver-Burk. It is filed as biochemical, Cerrena unicolor. Particulars: optimal pH 5.5 and temperature 80°C; 0.5–10 mM 2,6-DMP; apparent Km.
Experiment [2] deals with LacA. Particulars: optimal pH 2.5 and temperature 60°C; 5–100 μM ABTS; apparent Km.
The test system of experiment [3] is LacA. As to the kind of experiment: oxidation monitored at […] nm, Lineweaver-Burk. The format is biochemical, Cerrena unicolor. The conditions noted are these: optimal pH 4.0 and temperature 80°C; 0.5–5 mM guaiacol; apparent Km.
Experiment [4] has as its target Cerrena unicolor BBP6 laccase (LacA) (Cerrena unicolor BBP6). The experiment is described as follows: SEC; Superdex 200 Increase 10/300 GL, 10 mM phosphate buffer-140 mM NaCl (pH 7.4), 0.5 mL min^-1, room temperature; native mass compared with the subunit mass from SDS-PAGE.

Take `COc1cccc(OC)c1O` [2,6-DMP]: in experiment [1], the Km (as a rule, the concentration of substrate that gives half-maximal velocity) came out at 3.43 mM.

For the molecule `CCn1c(=NN=c2sc3cc(S(=O)(=O)O)ccc3n2CC)sc2cc(S(=O)(=O)O)ccc21` [ABTS], the Km in experiment [2] was determined as 49.1 µM.

As to `COc1ccccc1O` [guaiacol], in experiment [3], the Michaelis constant (Km) came out at 1.24 mM.

“Cerrena unicolor BBP6 laccase (LacA) (enzyme)”: the stoichiometry N (commonly the number of molecules, sites or subunits per partner or assembly) in experiment [4] is 2.
